Reference: patent US7323469B2, “7H-pyrrolo[2,3-d]pyrimidine derivatives” (Novartis AG, priority 2001, dated 2008)

Assays:
EGF-R (HER-1) = target: T1, EGF-R (HER-1) (Homo sapiens, UniProt P00533); assay: Inhibition of EGF-R tyrosine kinase activity (recombinant intracellular domain, EGF-R ICD); type: biochemical
T1 construct: using the recombinant intracellular domain of the EGF-receptor [EGF-R ICD
Protocol: J. Biochem. 207, 265-275 (1992)].
(§1) Inhibition of the Tyrosine Kinase Activity of EGF-R (HER-1), ErbB-2 (HER-2) and VEGF Receptor (KDR)
(§2) The inhibition tests are carried out as described above.

ErbB-2 (HER-2) = ErbB-2 (HER-2) (Homo sapiens, UniProt P04626); assay: Inhibition of ErbB-2 tyrosine kinase activity; type: biochemical
Sequence of ErbB-2 (HER-2) (P04626 23-1255): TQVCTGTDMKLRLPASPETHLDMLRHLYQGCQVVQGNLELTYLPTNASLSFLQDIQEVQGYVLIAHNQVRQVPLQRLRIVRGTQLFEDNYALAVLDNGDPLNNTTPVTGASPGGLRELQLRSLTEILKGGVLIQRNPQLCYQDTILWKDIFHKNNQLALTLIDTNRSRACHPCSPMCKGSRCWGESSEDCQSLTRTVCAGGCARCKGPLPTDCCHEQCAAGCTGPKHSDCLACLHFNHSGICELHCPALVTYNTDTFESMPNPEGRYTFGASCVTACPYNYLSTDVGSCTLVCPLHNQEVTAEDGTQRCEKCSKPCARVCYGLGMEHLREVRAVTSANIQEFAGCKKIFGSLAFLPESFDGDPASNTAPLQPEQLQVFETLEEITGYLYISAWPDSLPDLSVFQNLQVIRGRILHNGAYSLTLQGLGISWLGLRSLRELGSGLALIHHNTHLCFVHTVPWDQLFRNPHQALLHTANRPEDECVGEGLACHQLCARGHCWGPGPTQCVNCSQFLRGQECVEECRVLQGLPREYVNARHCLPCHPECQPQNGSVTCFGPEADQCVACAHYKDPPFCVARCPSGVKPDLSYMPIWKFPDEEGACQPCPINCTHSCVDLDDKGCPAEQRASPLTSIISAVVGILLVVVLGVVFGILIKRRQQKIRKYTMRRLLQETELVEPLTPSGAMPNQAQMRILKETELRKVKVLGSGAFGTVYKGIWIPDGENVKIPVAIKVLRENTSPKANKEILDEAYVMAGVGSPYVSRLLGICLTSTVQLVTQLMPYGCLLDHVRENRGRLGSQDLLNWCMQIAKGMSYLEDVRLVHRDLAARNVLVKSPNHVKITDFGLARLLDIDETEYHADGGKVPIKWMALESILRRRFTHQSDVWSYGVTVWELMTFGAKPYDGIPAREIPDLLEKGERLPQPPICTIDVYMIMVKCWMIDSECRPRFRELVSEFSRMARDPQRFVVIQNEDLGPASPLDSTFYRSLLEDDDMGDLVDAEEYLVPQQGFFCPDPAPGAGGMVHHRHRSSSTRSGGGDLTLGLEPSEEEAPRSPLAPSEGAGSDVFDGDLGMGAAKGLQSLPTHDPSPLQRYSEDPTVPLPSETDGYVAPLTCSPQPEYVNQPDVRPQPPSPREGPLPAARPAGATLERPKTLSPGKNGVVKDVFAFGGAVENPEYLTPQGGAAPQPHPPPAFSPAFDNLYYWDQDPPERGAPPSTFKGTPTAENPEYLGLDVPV
Protocol: The inhibitory activity (IC50) is approximately in the range of 0.001 to 0.5 μM. The inhibition of ErbB-2 tyrosine kinase (HER-2) can be determined, for example, analogously to the method used for EGF-R protein tyrosine kinase [see C. House et al., Europ. J. Biochem. 140, 363-367 (1984)]. The ErbB-2 kinase can be isolated, and its activity determined, by means of protocols known per se, for example in accordance with T. Akiyama et al., Science 232, 1644 (1986).
as §1, §2

VEGF Receptor (KDR) = VEGF Receptor (KDR) (Homo sapiens, UniProt P35968); assay: Inhibition of KDR tyrosine kinase activity; type: biochemical
Sequence of VEGF Receptor (KDR) (P35968 20-1356): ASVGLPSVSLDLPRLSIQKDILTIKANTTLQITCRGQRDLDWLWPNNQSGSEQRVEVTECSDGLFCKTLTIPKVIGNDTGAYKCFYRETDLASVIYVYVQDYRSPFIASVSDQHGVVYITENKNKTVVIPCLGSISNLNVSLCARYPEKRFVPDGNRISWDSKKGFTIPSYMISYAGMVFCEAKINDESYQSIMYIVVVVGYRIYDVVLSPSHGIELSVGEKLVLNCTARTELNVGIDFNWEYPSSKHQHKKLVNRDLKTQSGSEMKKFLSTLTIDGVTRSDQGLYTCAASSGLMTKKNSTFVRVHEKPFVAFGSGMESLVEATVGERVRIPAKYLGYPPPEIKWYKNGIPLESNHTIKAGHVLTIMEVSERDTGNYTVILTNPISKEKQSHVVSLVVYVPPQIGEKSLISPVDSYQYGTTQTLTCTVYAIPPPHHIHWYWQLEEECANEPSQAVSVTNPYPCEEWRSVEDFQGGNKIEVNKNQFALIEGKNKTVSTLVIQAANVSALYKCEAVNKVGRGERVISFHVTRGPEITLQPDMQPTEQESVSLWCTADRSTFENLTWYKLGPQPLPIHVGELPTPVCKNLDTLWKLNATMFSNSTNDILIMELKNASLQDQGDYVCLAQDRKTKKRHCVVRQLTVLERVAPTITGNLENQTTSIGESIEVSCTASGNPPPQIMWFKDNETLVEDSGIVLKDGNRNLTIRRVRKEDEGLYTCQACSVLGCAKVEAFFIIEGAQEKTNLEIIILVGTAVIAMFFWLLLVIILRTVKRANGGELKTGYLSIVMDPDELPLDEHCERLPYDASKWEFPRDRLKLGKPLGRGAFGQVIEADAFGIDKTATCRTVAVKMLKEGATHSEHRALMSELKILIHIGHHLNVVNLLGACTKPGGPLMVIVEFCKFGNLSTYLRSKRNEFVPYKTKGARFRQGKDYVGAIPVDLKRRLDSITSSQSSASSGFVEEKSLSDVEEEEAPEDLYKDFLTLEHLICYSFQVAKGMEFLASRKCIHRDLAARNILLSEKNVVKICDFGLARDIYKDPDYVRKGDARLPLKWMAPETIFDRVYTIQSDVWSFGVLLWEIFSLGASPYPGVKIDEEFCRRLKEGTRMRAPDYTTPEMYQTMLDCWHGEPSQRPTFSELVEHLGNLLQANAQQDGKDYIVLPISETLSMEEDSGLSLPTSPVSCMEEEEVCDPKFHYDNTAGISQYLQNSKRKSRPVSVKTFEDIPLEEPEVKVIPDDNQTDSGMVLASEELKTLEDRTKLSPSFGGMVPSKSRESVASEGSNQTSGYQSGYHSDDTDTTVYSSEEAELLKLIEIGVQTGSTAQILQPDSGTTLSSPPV
Protocol: The compounds of the present invention are therefore very effective dual inhibitors of EGF- and VEGF-receptor family members. For inhibition of KDR and Flt-1 and inhibition of growth factor-induced proliferation of HUVECS see J. Wood et al., Cancer Res. 60, 2178-2189 (2000). The compounds of formula I inhibit e.g. the KDR tyrosine kinase activity with an IC50 of from about 1 nM to about 1 μM, especially from about 5 nM to about 0.5 μM.
as §1, §2

T1 sequence (P00533 669-1210 limits assumed): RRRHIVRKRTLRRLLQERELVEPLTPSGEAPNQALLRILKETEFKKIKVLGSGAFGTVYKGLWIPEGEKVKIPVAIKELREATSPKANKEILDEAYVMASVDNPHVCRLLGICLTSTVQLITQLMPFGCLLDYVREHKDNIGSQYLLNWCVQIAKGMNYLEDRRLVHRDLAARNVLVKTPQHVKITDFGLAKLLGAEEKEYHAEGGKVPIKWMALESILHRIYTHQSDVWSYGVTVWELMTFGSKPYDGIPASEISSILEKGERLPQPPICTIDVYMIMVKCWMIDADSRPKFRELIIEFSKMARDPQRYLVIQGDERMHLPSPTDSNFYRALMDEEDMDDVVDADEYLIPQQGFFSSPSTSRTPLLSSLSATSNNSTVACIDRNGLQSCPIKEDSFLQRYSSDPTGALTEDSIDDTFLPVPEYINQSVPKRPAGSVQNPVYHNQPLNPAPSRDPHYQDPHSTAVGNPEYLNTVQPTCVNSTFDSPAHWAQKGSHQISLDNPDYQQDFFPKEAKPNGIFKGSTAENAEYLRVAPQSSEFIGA

C[C@@H](Nc1ncnc2[nH]c(-c3ccc(CNCCN4CCOCC4)cc3)cc12)c1ccccc1 [Example 16a, (6-{4-[(2-Morpholin-4-yl-ethylamino)-methyl]-phenyl}-7H-pyrrolo[2,3-d]pyrimidin-4-yl)-((R)-1-phenyl-ethyl)-amine]
IC50 (EGF-R (HER-1)): 1.2 nM
IC50 (ErbB-2 (HER-2)): 16 nM
IC50 (VEGF Receptor (KDR)): 61 nM
melting point: 222 to 224 °C

CN1CCN(Cc2ccc(-c3cc4c(Nc5ccc(OCc6ccccc6)cc5)ncnc4[nH]3)cc2)CC1 [Example 18, (4-Benzyloxy-phenyl)-{6-[4-(4-methyl-piperazin-1-ylmethyl)-phenyl]-7H-pyrrolo[2,3-d]pyrimidin-4-yl}-amine]
IC50 (EGF-R (HER-1)): 16.5 nM
IC50 (ErbB-2 (HER-2)): 31.5 nM
IC50 (VEGF Receptor (KDR)): 24.5 nM
melting point: 256 to 258 °C

C[C@@H](Nc1ncnc2[nH]c(-c3ccc(CNC(=O)CN4CCN(C)CC4)cc3)cc12)c1ccccc1 [Example 43, 2-(4-Methyl-piperazin-1-yl)-N-{4-[4-((R)-1-phenyl-ethylamino)-7H-pyrrolo[2,3-d]pyrimidin-6-yl]-benzyl}-acetamide]
IC50 (EGF-R (HER-1)): 5 nM
IC50 (ErbB-2 (HER-2)): 11.5 nM
IC50 (VEGF Receptor (KDR)): 51.5 nM
melting point: 150 to 152 °C

O=C(CN1CCOCC1)NCc1ccc(-c2cc3c(Nc4ccc(F)c(Cl)c4)ncnc3[nH]2)cc1 [Example 48, N-{4-[4-(3-Chloro-4-fluoro-phenylamino)-7H-pyrrolo[2,3-d]pyrimidin-6-yl]-benzyl}-2-morpholin-4-yl-acetamide]
IC50 (EGF-R (HER-1)): 5.7 nM
IC50 (ErbB-2 (HER-2)): 7.5 nM
IC50 (VEGF Receptor (KDR)): 58 nM
melting point: 272 to 275 °C

CN1CCN(CC(=O)NCc2ccc(-c3cc4c(Nc5ccc(OCc6ccccc6)cc5)ncnc4[nH]3)cc2)CC1 [Example 52, N-{4-[4-(4-Benzyloxy-phenylamino)-7H-pyrrolo[2,3-d]pyrimidin-6-yl]-benzyl}-2-(4-methyl-piperazin-1-yl)-acetamide]
IC50 (EGF-R (HER-1)): 15.7 nM
IC50 (ErbB-2 (HER-2)): 14 nM
IC50 (VEGF Receptor (KDR)): 125 nM
melting point: 232 to 234 °C

Clc1cccc(CNc2ncnc3[nH]c(-c4ccc(CN5CCOCC5)cc4)cc23)c1 [Example 86, (3-Chloro-benzyl)-[6-(4-morpholin-4-ylmethyl-phenyl)-7H-pyrrolo[2,3-d]pyrimidin-4-yl]-amine]
IC50 (EGF-R (HER-1)): 5.5 nM
IC50 (ErbB-2 (HER-2)): 16 nM
IC50 (VEGF Receptor (KDR)): 105 nM
melting point: 253 to 254.5 °C

CN1CCN(Cc2ccc(-c3cc4c(NCc5ccccc5Cl)ncnc4[nH]3)cc2)CC1 [Example 94, (2-Chloro-benzyl)-{6-[4-(4-methyl-piperazin-1-ylmethyl)-phenyl]-7H-pyrrolo[2,3-d]pyrimidin-4-yl}-amine]
IC50 (EGF-R (HER-1)): 1.8 nM
IC50 (ErbB-2 (HER-2)): 16 nM
IC50 (VEGF Receptor (KDR)): 42 nM
melting point: 267 to 269 °C
